Assay results: US9006433B2, “Substituted pyrimidines” (Merck Sharp & Dohme Corp., priority 2010, dated 2015)

Biological target: T1, PHD2 (Homo sapiens, UniProt Q9GZT9)
T1 construct: FLAG-tagged full length PHD2 expressed in and purified from baculovirus-infected Sf9 cells; FLAG; made in house; host or cells: baculovirus-infected Sf9 cells
Assay: PHD2 inhibition assay (time resolved fluorescence, HIF-1α peptide hydroxylation / VHL complex detection)
Type: biochemical
Conditions: FLAG-tagged full length PHD2; 0.2 μM 2-oxoglutarate, 0.5 μM HIF-1α peptide
Procedure: To each well of a 96-well plate was added 1 μL of test compound in DMSO and 20 μl of assay buffer (50 mM Iris pH 7.4/0.01% Tween-20/0.1 mg/ml bovine serum albumin/10 μM ferrous sulfate/1 mM sodium ascorbate/20 μg/ml catalase) containing 0.15 μg/ml FLAG-tagged full length PHD2 expressed in and purified from baculovirus-infected Sf9 cells. After a 30 min preincubation at room temperature, the enzymatic reactions were initiated by the addition of […] of substrates (final concentrations of 0.2 μM 2-oxoglutarate and 0.5 μM HIF-1α peptide biotinyl-DLDLEMLAPYIPMDDDFQL (SEQ ID NO:1)). After 2 hr at room temperature, the reactions were terminated and signals were developed by the addition of a 25 μL quench/detection mix to a final concentration of 1 mM ortho-phenanthroline, 0.1 mM EDTA, 0.5 nM anti-(His)6 LANCE reagent (Perkin-Elmer Life Sciences), 100 nM AF647-labeled streptavidin (Invitrogen), and 2 μg/ml (His)-6-VHL complex (S. Tan(2001) Protein Expr. Purif. 21, 224-234). The ratio of time resolved fluorescence signals at 665 and 620 nm was determined, and percent inhibition was calculated relative to an uninhibited control sample run in parallel.

T1 sequence (Q9GZT9 whole entry, species assumed): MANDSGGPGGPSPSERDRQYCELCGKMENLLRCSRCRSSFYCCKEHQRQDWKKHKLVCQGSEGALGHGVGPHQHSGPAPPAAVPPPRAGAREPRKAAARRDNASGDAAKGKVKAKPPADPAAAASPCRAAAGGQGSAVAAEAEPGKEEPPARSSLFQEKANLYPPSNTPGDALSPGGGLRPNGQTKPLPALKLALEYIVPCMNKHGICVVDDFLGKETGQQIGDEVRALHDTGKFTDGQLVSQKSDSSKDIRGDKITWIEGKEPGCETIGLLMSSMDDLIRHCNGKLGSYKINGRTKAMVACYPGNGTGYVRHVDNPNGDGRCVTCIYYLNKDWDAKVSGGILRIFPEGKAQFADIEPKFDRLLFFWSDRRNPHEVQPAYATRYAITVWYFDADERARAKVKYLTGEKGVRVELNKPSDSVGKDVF

Row | IC50 [µM] | SMILES
1 | 0.0005 to 0.02 | CC(NC(=S)Nc1cnc(-n2cccn2)nc1O)c1ccccc1 (centres unmarked) [Compound 7-1, 1-(4-hydroxy-2-(1H-pyrazol-1-yl)pyrimidin-5-yl)-3-(1-phenylethyl)thiourea]
2 | 0.1 to 10 | CC(C)(C)OC(=O)Nc1cnc(-n2cccn2)nc1O [Compound 5-12, tert-butyl 4-hydroxy-2-(1H-pyrazol-1-yl)pyrimidin-5-yl carbamate]
3 | 0.0005 to 0.02 | O=C(Nc1cnc(-n2cccn2)nc1O)C1Cc2ccccc2C1 [Compound 3-55, 2,3-dihydro-N-(4-hydroxy-2-(1H-pyrazol-1-yl)pyrimidin-5-yl)-1H-indene-2-carboxamide]
4 | 0.0005 to 0.02 | O=C(Cc1ccc(-c2ccccc2)cc1)Nc1cnc(-n2cccn2)nc1O [Compound 3-42, 2-(biphenyl-4-yl)-N-(4-hydroxy-2-(1H-pyrazol-1-yl)pyrimidin-5-yl)acetamide]
5 | 0.1 to 10 | CC(C)(C)OC(=O)N1CCCC(C(=O)Nc2cnc(-n3cccn3)nc2O)C1 (centres unmarked) [Compound 3-49, tert-butyl 3-(4-hydroxy-2-(1H-pyrazol-1-yl)pyrimidin-5-ylcarbamoyl)piperidine-1-carboxylate]
6 | 0.0005 to 0.02 | O=C(NCc1ccccc1)Nc1cnc(-n2cccn2)nc1O [Compound 5-2, 1-benzyl-3-(4-hydroxy-2-(1H-pyrazol-1-yl)pyrimidin-5-yl)urea]
7 | 0.02 to 0.1 | CC(C)(C)OC(=O)N1CCC(CC(=O)Nc2cnc(-n3cccn3)nc2O)CC1 [Compound 3-50, tert-butyl4-((4-hydroxy-2-(1H-pyrazol-1-yl)pyrimidin-5-ylcarbamoyl)methyl)piperidine-1-carboxylate]
8 | 0.02 to 0.1 | CC(C)N(C(=O)Nc1cnc(-n2cccn2)nc1O)c1ccccc1 [Compound 5-8, 3-(4-hydroxy-2-(1H-pyrazol-1-yl)pyrimidin-5-yl)-1-isopropyl-1-phenylurea]
9 | 0.0005 to 0.02 | CCCCCCC(=O)Nc1cnc(-n2cccn2)nc1O [Compound 3-43, N-(4-hydroxy-2-(1H-pyrazol-1-yl)pyrimidin-5-yl)heptanamide]
10 | 0.1 to 10 | CCCCOC(=O)Nc1cnc(-n2cccn2)nc1O [Compound 5-13, butyl 4-hydroxy-2-(1H-pyrazol-1-yl)pyrimidin-5-ylcarbamate]
11 | 0.1 to 10 | O=S(=O)(Nc1cnc(-n2cccn2)nc1O)c1cccc(Cl)c1 [Compound 4-3, 3-chloro-N-[4-hydroxy-2-(1H-pyrazol-1-yl)pyrimidin-5-yl]benzenesulfonamide]
12 | 0.0005 to 0.02 | O=C(Nc1cnc(-n2cccn2)nc1O)C1CCc2ccccc21 (centres unmarked) [Compound 3-53, 2,3-dihydro-N-(4-hydroxy-2-(1H-pyrazol-1-yl)pyrimidin-5-yl)-1H-indene-1-carboxamide]
13 | 0.1 to 10 | O=C(Cc1cnc(-n2cccn2)nc1O)Nc1ccc(Cl)cc1 [Compound 12-1, N-(4-chlorophenyl)-2-(4-hydroxy-2-(1H-pyrazol-1-yl)pyrimidin-5-yl)acetamide]
14 | 0.0005 to 0.02 | O=C(Nc1cnc(-n2cccn2)nc1O)C1CCCc2ccccc21 (centres unmarked) [Compound 3-52, 1,2,3,4-tetrahydro-N-(4-hydroxy-2-(1H-pyrazol-1-yl)pyrimidin-5-yl)naphthalene-1-carboxamide]
15 | 0.0005 to 0.02 | O=C(Nc1cnc(-n2cccn2)nc1O)N(c1ccccc1)c1ccccc1 [Compound 5-7, 3-(4-hydroxy-2-(1H-pyrazol-1-yl)pyrimidin-5-yl)-1,1-diphenylurea]
16 | 0.0005 to 0.02 | CC(C)(C)OC(=O)N1CCC(C(=O)Nc2cnc(-n3cccn3)nc2O)CC1 [Compound 3-47, tert-butyl4-(4-hydroxy-2-(1H-pyrazol-1-yl)pyrimidin-5-ylcarbamoyl)piperidine-1-carboxylate]
17 | 0.1 to 10 | O=S(=O)(Cc1ccc(C(F)(F)F)cc1)Nc1cnc(-n2cccn2)nc1O [Compound 4-4, N-[4-hydroxy-2-(1H-pyrazol-1-yl)pyrimidin-5-yl]-1-[4-(trifluoromethyl)phenyl]methanesulfonamide]
18 | 0.0005 to 0.02 | Oc1nc(-n2cccn2)ncc1NC(=S)NC(c1ccccc1)c1ccccc1 [Compound 6-1, 1-benzhydryl-3-(4-hydroxy-2-(1H-pyrazol-1-yl)pyrimidin-5-yl)thiourea]
19 | 0.02 to 0.1 | O=C(Nc1cnc(-n2cccn2)nc1O)C1CCCCC1 [Compound 3-46, N-(4-hydroxy-2-(1H-pyrazol-1-yl)pyrimidin-5-yl)cyclohexanecarboxamide]
20 | 0.1 to 10 | O=C(Nc1cnc(-n2cccn2)nc1O)NC1CCCC1 [Compound 5-5, 1-cyclopentyl-3-(4-hydroxy-2-(1H-pyrazol-1-yl)pyrimidin-5-yl)urea]
21 | 0.1 to 10 | O=C(OC(c1ccccc1)c1ccccc1)c1cnc(-n2cccn2)nc1O [Compound 9-1, benzhydryl 4-hydroxy-2-(1H-pyrazol-1-yl)pyrimidine-5-carboxylate]
22 | 0.02 to 0.1 | CC(C)(NC(=S)Nc1cnc(-n2cccn2)nc1O)c1ccccc1 [Compound 8-1, 1-(4-hydroxy-2-(1H-pyrazol-1-yl)pyrimidin-5-yl)-3-(2-phenylpropan-2-yl)thiourea]
23 | 0.0005 to 0.02 | CC(NC(=O)Nc1cnc(-n2cccn2)nc1O)c1ccccc1 (centres unmarked) [Compound 5-3, 1-(4-hydroxy-2-(1H-pyrazol-1-yl)pyrimidin-5-yl)-3-(1-phenylethyl)urea]

Continued, compound first:

Row | SMILES | IC50 [µM]
24 | O=C(Cc1ccccc1Cl)Nc1cnc(-n2cccn2)nc1O [Compound 3-23, 2-(2-chlorophenyl)-N-(4-hydroxy-2-(1H-pyrazol-1-yl)pyrimidin-5-yl)acetamide] | 0.0005 to 0.02
25 | O=C(Nc1cnc(-n2cccn2)nc1O)C(c1ccccc1)c1ccccc1 [Compound 2-1, N-(4-hydroxy-2-(1H-pyrazol-1-yl)pyrimidin-5-yl)-2,2-diphenylacetamide] | 0.0005 to 0.02
26 | O=C(Cc1cccc(C(F)(F)F)c1)Nc1cnc(-n2cccn2)nc1O [Compound 3-28, 2-(3-(trifluoromethyl)phenyl)-N-(4-hydroxy-2-(1H-pyrazol-1-yl)pyrimidin-5-yl)acetamide] | 0.0005 to 0.02
27 | O=C(Cc1cccc(Cl)c1)Nc1cnc(-n2cccn2)nc1O [Compound 3-24, 2-(3-chlorophenyl)-N-(4-hydroxy-2-(1H-pyrazol-1-yl)pyrimidin-5-yl)acetamide] | 0.0005 to 0.02
28 | O=C(Cc1ccccc1C(F)(F)F)Nc1cnc(-n2cccn2)nc1O [Compound 3-27, 2-(2-(trifluoromethyl)phenyl)-N-(4-hydroxy-2-(1H-pyrazol-1-yl)pyrimidin-5-yl)acetamide] | 0.0005 to 0.02
29 | O=C(Nc1cnc(-n2cccn2)nc1O)c1cccc(Cl)c1 [Compound 3-2, 3-chloro-N-(4-hydroxy-2-(1H-pyrazol-1-yl)pyrimidin-5-yl)benzamide] | 0.0005 to 0.02
30 | O=C(Cc1ccncc1)Nc1cnc(-n2cccn2)nc1O [Compound 3-41, N-(4-hydroxy-2-(1H-pyrazol-1-yl)pyrimidin-5-yl)-2-(pyridin-4-yl)acetamide] | 0.02 to 0.1
31 | O=C(Nc1cnc(-n2cccn2)nc1O)c1ccccc1C(F)(F)F [Compound 3-10, 2-(trifluoromethyl)-N-(4-hydroxy-2-(1H-pyrazol-1-yl)pyrimidin-5-yl)benzamide] | 0.0005 to 0.02
32 | CC(C)(C(=O)Nc1cnc(-n2cccn2)nc1O)c1ccccc1 [Compound 3-37, N-(4-hydroxy-2-(1H-pyrazol-1-yl)pyrimidin-5-yl)-2-methyl-2-phenylpropanamide] | 0.0005 to 0.02
33 | N#Cc1ccc(C(=O)Nc2cnc(-n3cccn3)nc2O)cc1 [Compound 3-9, 4-cyano-N-(4-hydroxy-2-(1H-pyrazol-1-yl)pyrimidin-5-yl)benzamide] | 0.02 to 0.1
34 | O=C(Nc1cnc(-n2cccn2)nc1O)C1(c2ccccc2)CC1 [Compound 3-38, N-(4-hydroxy-2-(1H-pyrazol-1-yl)pyrimidin-5-yl)-1-phenylcyclopropanecarboxamide] | 0.02 to 0.1
35 | COc1ccccc1CC(=O)Nc1cnc(-n2cccn2)nc1O [Compound 3-30, N-(4-hydroxy-2-(1H-pyrazol-1-yl)pyrimidin-5-yl)-2-(2-methoxyphenyl)acetamide] | 0.0005 to 0.02
36 | N#Cc1cccc(CC(=O)Nc2cnc(-n3cccn3)nc2O)c1 [Compound 3-26, 2-(3-cyanophenyl)-N-(4-hydroxy-2-(1H-pyrazol-1-yl)pyrimidin-5-yl)acetamide] | 0.0005 to 0.02
37 | O=C(Cc1ccc(Cl)cc1)Nc1cnc(-n2cccn2)nc1O [Compound 3-25, 2-(4-chlorophenyl)-N-(4-hydroxy-2-(1H-pyrazol-1-yl)pyrimidin-5-yl)acetamide] | 0.0005 to 0.02
38 | O=C(Nc1cnc(-n2cccn2)nc1O)c1ccccc1Cl [Compound 3-1, 2-chloro-N-(4-hydroxy-2-(1H-pyrazol-1-yl)pyrimidin-5-yl)benzamide] | 0.0005 to 0.02
39 | O=C(Nc1cnc(-n2cccn2)nc1O)c1cccc(-c2ccccc2)c1 [Compound 3-18, N-[4-hydroxy-2-(1H-pyrazol-1-yl)pyrimidin-5-yl]biphenyl-3-carboxamide] | 0.02 to 0.1
40 | O=C(Cc1cccc2ccccc12)Nc1cnc(-n2cccn2)nc1O [Compound 3-39, N-(4-hydroxy-2-(1H-pyrazol-1-yl)pyrimidin-5-yl)-2-(naphthalen-1-yl)acetamide] | 0.0005 to 0.02
41 | O=C(Cc1ccc2ccccc2c1)Nc1cnc(-n2cccn2)nc1O [Compound 3-6, N-(4-hydroxy-2-(1H-pyrazol-1-yl)pyrimidin-5-yl)-2-(naphthalen-3-yl)acetamide] | 0.0005 to 0.02
